Assay results: ChEMBL document CHEMBL1777709, “Asymmetric synthesis and biological evaluations of (+)- and (-)-6-dimethoxymethyl-1,4-dihydropyridine-3-carboxylic acid derivatives blocking N-type calcium channels” (Bioorg Med Chem Lett, 2011)

Assays:
[1] = Inhibition of Voltage-dependent N-type calcium channel- mediated calcium influx in human IMR-32 cells; format: cell-based
[2] = molecular target: Voltage-gated L-type calcium channel (Rattus norvegicus, UniProt P22002+Q02485+P27732); assay: Inhibition of Voltage-dependent L-type calcium channel in rat thoracic aorta ring; format: tissue-based
[3] = tested on: Rattus norvegicus; assay: Ratio of inhibition of L-type calcium channel to inhibition of N-type calcium channel in rat hypertension model at 3 ug/ml, iv; format: functional

| SMILES | IC50 ([1]; Homo sapiens, IMR-32) [nM] | IC50 [2] [nM] | IC50 ([1]; imr-32) [nM] | Ratio [3] |
| --- | --- | --- | --- | --- |
| CC1=C(C(=O)O)C(c2cccc([N+](=O)[O-])c2)C(C(=O)OC/C=C/c2ccccc2)=C(C)N1 (racemic) | 3500 | – | – | – |
| COCCOC(=O)C1=C(C)NC(C)=C(C(=O)OC/C=C/c2ccccc2)C1c1cccc([N+](=O)[O-])c1 (configuration not stated) [CILNIDIPINE] | 1600 | – | – | 1 |

Further lines, with some results ahead:

| IC50 ([1]; Homo sapiens, IMR-32) [nM] | IC50 [2] [nM] | IC50 ([1]; imr-32) [nM] | SMILES | Ratio [3] |
| --- | --- | --- | --- | --- |
| 3000 | – | – | COC(OC)C1=C(C(=O)OC/C=C/c2ccccc2)C(c2cccc(Cl)c2)C(C(=O)O)=C(C)N1 (racemic) | – |
| – | 13200 | 2600 | COC(OC)C1=C(C(=O)OC/C=C/c2ccccc2)C(c2cccc(Cl)c2)C(C(=O)O)=C(C)N1 (single isomer, unassigned; (+)) | – |
| – | 1800 | – | COC(OC)C1=C(C(=O)OC/C=C/c2ccccc2)C(c2cccc(Cl)c2)C(C(=O)O)=C(C)N1 (stereo in doubt; (-)-3) | – |
